From patent publication US10597388B2, “Pyridazinone herbicides” (FMC CORPORATION, priority 2014, dated 2020)
Read-outs that look alike come from different tables or passages of the source.

Tests used:
Type in all cases: in vivo
[1] = tested on: wild poinsettia (Euphorbia heterophylla); assay: Test E greenhouse herbicide test, pre- and postemergence
Method in brief: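 Compounds in surfactant-containing solvent are applied to soil right after sowing (silt loam) and, in parallel, to 1- to 4-leaf plants in a peat-based medium. Weed control is scored visually on a 0 (none) to 100 (complete) scale at 14 to 21 d.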

[2] = tested on: AMARE, redroot pigweed (Amaranthus retroflexus); assay: Test F mixtures with commercial herbicides, Post- or Pre-emergence; details: scale 0-100
Experimental: (§1) This test evaluated the effect of mixtures of Compound 1 or Compound 2 with various commercial herbicides on multiple plant species. Seeds of multiple plant species selected were planted into Sandy Loam soil and treated either Post-emergence or Pre-emergence with test chemicals formulated in a non-phytotoxic solvent mixture. Plants were grown in a greenhouse using supplemental lighting to maintain a photoperiod of approximately 16 h; daytime and nighttime temperatures were approximately 24-30 and 19-21° C., respectively. Balanced fertilizer was applied through the watering system. Treated plants and controls were maintained in a greenhouse for 20 d, after which time all species were compared to controls and visually evaluated. Plant response ratings summarized in Tables F1 through F4 and are based on a scale of 0 to 100 where 0 is no effect and 100 is complete control. A dash (-) response means no test result. Application rates (i.e. “Rate”) are expressed in grams of active ingredient per hectare (g a.i./ha). In the following tables KCHSC is kochia (Kochia scoparia), LOLMU in Italian Ryegrass (Lolium multiflorum), AMBEL is common ragweed (Ambrosia elatior), ECHCG is barnyardgrass (Echinochloa crus-galli), SETVI is giant foxtail (Setaria faberii), AMARE is redroot pigweed (Amaranthus retroflexus), ALOMY is blackgrass (Alopecurus myosuroides) and GALAP is galium (Galium aparine). “Obsd.” is observed effect. “Exp.” is expected effect calculated from Colby's Equation.
(§2) Colby's Equation was used to determine the herbicidal effects expected from the mixtures. Colby's Equation (Colby, S. R. “Calculating Synergistic and Antagonistic Responses of Herbicide Combinations,” Weeds, 15(1), pp 20-22 (1967)) calculates the expected additive effect of herbicidal mixtures, and for two active ingredients is of the form: Pa+b=Pa+Pb−(PaPb/100)
(§3) wherein Pa+b is the percentage effect of the mixture expected from additive contribution of the individual components:
(§4) Pa is the observed percentage effect of the first active ingredient at the same use rate as in the mixture, and
(§5) Pb is the observed percentage effect of the second active ingredient at the same use rate as in the mixture.

[3] = tested on: ALOMY, blackgrass (Alopecurus myosuroides); assay: as above; details: Table F3, Post-emergence, scale 0-100
Experimental: as §1, §2, §3, §4, §5

[4] = tested on: crabgrass, large (large crabgrass, Digitaria sanguinalis); assay: Test A greenhouse herbicide test, pre- and postemergence; details: Digitaria sanguinalis, 240 h; for pest or weed control at 125 g/ha: 125 g ai/ha; for pest or weed control at 500 g/ha: 500 g ai/ha, 0 to 100 scale
Method in brief: (§6)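 Seeds in loam–sand blend received a preemergence directed soil spray; plants at 2–10 cm, one- to two-leaf stage, received postemergence sprays. Compounds in a non-phytotoxic solvent with surfactant. After about 10 d in a greenhouse, injury rated visually versus untreated controls on a 0–100 scale (100 = complete control).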

[5] = tested on: velvetleaf (Abutilon theophrasti); assay: as above; details: Abutilon theophrasti, 240 h; for pest or weed control at 125 g/ha: 125 g ai/ha; for pest or weed control at 500 g/ha: 500 g ai/ha, 0 to 100 scale
Method in brief: as §6

[6] = tested on: momingglory (Ipomoea spp.); assay: as above; details: Ipomoea, 240 h; for pest or weed control at 125 g/ha: 125 g ai/ha; for pest or weed control at 500 g/ha: 500 g ai/ha, 0 to 100 scale
Method in brief: as §6

`Cc1cc(C)c2sc(C)c(-c3c(O)c(C)nn(C)c3=O)c2c1` [Compound 2, 5-hydroxy-2,6-dimethyl-4-(2,5,7-trimethylbenzo[b]thien-3-yl)-3(2H)-pyridazinone] was tested, and the “Plant response rating, Poinsettia, Wild” value ([1]; 62 g ai/ha, Postemergence, scale 0 to 100 (0 no effect, 100 complete control)) was 0, the “Plant response rating, Poinsettia, Wild” value ([1]; 62 g ai/ha, Preemergence, scale 0 to 100 (0 no effect, 100 complete control)) was 30 and the “Plant response rating, Poinsettia, Wild” value ([1]; 125 g ai/ha, Postemergence, scale 0 to 100 (0 no effect, 100 complete control)) was 15. For the same molecule, the “Plant response rating, Poinsettia, Wild” value ([1]; 125 g ai/ha, Preemergence, scale 0 to 100 (0 no effect, 100 complete control)) was 30, the “Plant response rating, Poinsettia, Wild” value ([1]; 250 g ai/ha, Postemergence, scale 0 to 100 (0 no effect, 100 complete control)) was 15 and the “Plant response rating, Poinsettia, Wild” value ([1]; Postemergence, 16 g ai/ha, visual, scale 0 no effect to 100 complete control) was 0. The “Plant response rating, Poinsettia, Wild” value ([1]; Postemergence, 31 g ai/ha, visual, scale 0 no effect to 100 complete control) was 0, the “Plant response rating, Poinsettia, Wild” value ([1]; Preemergence, 16 g ai/ha, scale 0 to 100, 0 no effect, 100 complete control) was 0 and the “Plant response rating, Poinsettia, Wild” value ([1]; Preemergence, 31 g ai/ha, scale 0 to 100, 0 no effect, 100 complete control) was 25. The “Plant response rating, Poinsettia, Wild” value ([1]; Preemergence, 250 g ai/ha, visual, scale 0 no effect to 100 complete control) was 50, the “AMARE Obsd.” value ([2]; Pre-emergence, Rate 16 g a.i./ha) was 25 and the “AMARE Obsd.” value ([2]; Pre-emergence, Rate 62 g a.i./ha) was 75. The “AMARE Obsd.” value ([2]; Table F3, Post-emergence, Rate 16 g a.i./ha) was 25, the “AMARE Obsd.” value ([2]; Table F3, Post-emergence, Rate 62 g a.i./ha) was 80 and the “ALOMY Obsd.” value ([3]; Rate 16 g a.i./ha) was 20. The “ALOMY Obsd.” value ([3]; Rate 62 g a.i./ha) was 60, the pest or weed control at 125 g/ha ([4]; post-emergence, Postemergence, visual rating after approx. 10 d, 0 to 100 scale (0 no effect, 100 complete control), read-out: Plant response rating, Crabgrass, Large) was 50% and the pest or weed control at 500 g/ha ([4]; post-emergence, Postemergence, 0 is no effect, 100 is complete control, read-out: Crabgrass, Large plant response rating) was 70%. For the same molecule, the pest or weed control at 125 g/ha ([4]; pre-emergence, Preemergence, 0 to 100 scale where 0 is no effect and 100 is complete control, read-out: Crabgrass, Large plant response rating) was 90%, the pest or weed control at 500 g/ha ([4]; pre-emergence, Preemergence, 0 no effect, 100 complete control, read-out: Plant response rating, Crabgrass, Large) was 100% and the pest or weed control at 125 g/ha ([5]; post-emergence, Postemergence, visual rating after approx. 10 d, 0 to 100 scale (0 no effect, 100 complete control), read-out: Plant response rating, Velvetleaf) was 100%. It also gave a pest or weed control at 500 g/ha ([5]; post-emergence, Postemergence, 0 is no effect, 100 is complete control, read-out: Velvetleaf plant response rating) of 100%, a pest or weed control at 125 g/ha ([5]; pre-emergence, Preemergence, 0 to 100 scale where 0 is no effect and 100 is complete control, read-out: Velvetleaf plant response rating) of 80% and a pest or weed control at 500 g/ha ([5]; pre-emergence, Preemergence, 0 no effect, 100 complete control, read-out: Plant response rating, Velvetleaf) of 90%. It also gave a pest or weed control at 125 g/ha ([6]; post-emergence, Postemergence, visual rating after approx. 10 d, 0 to 100 scale (0 no effect, 100 complete control), read-out: Plant response rating, Morningglory) of 100%, a pest or weed control at 500 g/ha ([6]; post-emergence, Postemergence, 0 is no effect, 100 is complete control, read-out: Morningglory plant response rating) of 100% and a pest or weed control at 125 g/ha ([6]; pre-emergence, Preemergence, 0 to 100 scale where 0 is no effect and 100 is complete control, read-out: Morningglory plant response rating) of 80%. The pest or weed control at 500 g/ha ([6]; pre-emergence, Preemergence, 0 no effect, 100 complete control, read-out: Plant response rating, Morningglory) was 100%.
